Test results published in publication PMC2518627 (Analytical Biochemistry, 2007).

What was measured:
[1] = test system: NAADP binding protein from sea urchin (L. pictus) egg homogenate; assay: NAADP radioreceptor binding assay (displacement of [32P]NAADP); set-up: species or system Lytechinus pictus; conditions: for IC50: read-out: IC50 (displacement of [32P]NAADP binding), 1% sea urchin egg homogenate, 25 °C
Experimental: First, 25 μl of test sample was added to each tube. Second, 125 μl of 1% (v/v) sea urchin egg homogenate in intracellular medium was added and allowed to incubate for 10 min at 25 °C. […] The tubes were then incubated at room temperature for a further 10 min at 25 °C. Note that the order of addition is important to maximize the sensitivity of the assay. […] Washing was carried out three times using 1 ml of a buffer containing 20 mM Hepes and 500 mM potassium acetate (pH 7.4).
Radioactivity was determined by placing the filter circles in a scintillation vial containing 10 ml H2O, followed by Cerenkov scintillation counting.
Filter papers were wrapped in cling film and then placed in a cassette to expose a storage phosphor screen (GE Healthcare) for 1 to 4 h. The screen was then scanned using a Typhoon 9400 scanner (GE Healthcare) at a resolution of 100 μm. The resulting image was then analyzed using ImageQuant (GE Healthcare).
Samples are then filtered using a cell harvester. […] Sample concentrations may then be determined from the standard curve.

pancreatic acinar cells = assay: NAADP levels in pancreatic acinar cells preincubated with BAPTA-AM; type: cell-based, CD1 mice
Experimental: Cells may be prepared in any suitable manner; gametes, isolated cells, chopped tissue, and cells in culture all have been used successfully. Cells were then exposed to agonist, and at the appropriate time points the reaction in cells was stopped by the addition of 0.75 M ice-cold HClO4 added as an equal volume of 1.5 M solution. Sonication (Jencons Vibracell at amplitude 60) was carried out to disrupt the cells, which were then placed on ice for 15 min. The denatured protein was pelleted by centrifugation at 9000g for 10 min and stored at –80 °C for later analysis. Supernatant was neutralized with 1 M KHCO3, added as an equal volume of 2 M solution, and vortexed. The resulting KClO4 precipitate was removed by centifugation at 9000g for 10 min. Samples were stored at –80 °C for later analysis.
Pancreatic acinar cells were prepared as described previously. Briefly, pancreata were excised from 8- to 10-week-old male CD1 mice and were finely chopped before incubation with 200 U/ml collagenase for 15 min at 37 °C. The digested tissue was then washed and resuspended to 10 ml with buffer of the following composition: 140 mM NaCl, 4.7 mM KCl, 1 mM MgCl2, 1 mM CaCl2, 10 mM Hepes, and 10 mM glucose (pH 7.4). Protease inhibitor cocktail tablets (EDTA free, Roche Diagnostics, UK), one tablet per 50 ml, were added to this solution before use. The suspension was triturated, and supernatant that contained dispersed cells was collected into a new tube. After centrifugation at 800g for 3 min at 4 °C, the supernatant was discarded and the cell pellet was resuspended for further trituration and centrifugation. The resulting supernatant was discarded, and the cells were kept in buffer supplemented with 1 mM CaCl2 at room temperature on a rocking board for 30 min before use. Prior to use, the cells were centrifuged at 800g for 1 min at 4 °C. The cells were suspended in the above buffer without the addition of protease inhibitors. Pancreatic acinar cells were aliquoted into tubes. […]

human NAD kinase = test system: human NAD kinase; set-up: method as in PMID 11594753; conditions: cited from earlier work
[2] = Stability of nucleotides under different pH conditions (HPLC); type: physicochemical; conditions: 1 mM, 6 h
Experimental: All high-performance liquid chromatography (HPLC) was carried out on an anion exchange resin (AGMP1, Bio-Rad, USA), packed in 150 × 2.5-mm Omnifit columns, using a concave upward gradient of trifluoroacetic acid (TFA), delivered by a Waters 600e pump, as described previously. Detection was performed by a UV detector (Waters 2487, UK) at 254 nm.
Samples were then neutralized with their base equivalence of either Tris base (for acidic solutions) or Hepes acid (for basic solutions) as applicable. Samples were analyzed by HPLC as described above, with elution times being determined from standard runs with known compounds.

[3] = maximum concentration tested 100 μM
[4] = maximum concentration tested 2 mM
[5] = 100 pM CCK after preincubation with 20 μM BAPTA-AM

| Compound | Displacement of NAADP at the maximum concentration tested [1, 3] | IC50 [1] | also measured |
| --- | --- | --- | --- |
| Nc1ncnc2c1ncn2[C@@H]1O[C@H](COP(=O)(O)OP(=O)(O)OC[C@H]2OC(O)[C@H](O)[C@@H]2O)[C@@H](O)[C@H]1O (stereo partly shown) [ADPR] | failed to displace | – | – |
| Nc1ncnc2c1ncn2[C@@H]1O[C@H](COP(=O)(O)OP(=O)(O)O)[C@@H](O)[C@H]1O [ADP] | failed to displace | – | – |
| Nc1ncnc2c1ncn2[C@@H]1O[C@H](COP(=O)(O)O)[C@@H](O)[C@H]1O [AMP] | failed to displace | – | – |
| Nc1ncnc2c1ncn2[C@@H]1O[C@H](COP(=O)(O)OP(=O)(O)OP(=O)(O)O)[C@@H](O)[C@H]1O [ATP] | failed to displace | – | – |
| CC(=O)OCOC(=O)CN(CC(=O)OCOC(C)=O)c1ccccc1OCCOc1ccccc1N(CC(=O)OCOC(C)=O)CC(=O)OCOC(C)=O [BAPTA-AM, 1,2-bis(2-aminophenoxy)ethane-N,N,N′,N′-tetraacetic acid tetrakis (acetoxymethyl) ester] | – | – | Change in NAADP levels (pancreatic acinar cells; 20 μM BAPTA-AM alone, followed by control buffer): no change |
| O=P(O)(O)O[C@@H]1[C@H](O)[C@H](O)[C@@H](OP(=O)(O)O)[C@H](OP(=O)(O)O)[C@H]1O [IP3, D-myo-inositol 1,4,5-trisphosphate] | failed to displace | – | – |
| Nc1ncnc2c1ncn2[C@@H]1O[C@H](COP(=O)(O)OP(=O)(O)OC[C@H]2O[C@@H]([n+]3cccc(C(=O)O)c3)[C@H](O)[C@@H]2O)[C@@H](O)[C@H]1O [NAAD, nicotinic acid adenine dinucleotide] | – | 51 µM | – |
| NC(=O)c1ccc[n+]([C@@H]2O[C@H](COP(=O)([O-])OP(=O)(O)OC[C@H]3O[C@@H](n4cnc5c(N)ncnc54)[C@H](O)[C@@H]3O)[C@@H](O)[C@H]2O)c1 [NAD, nicotinamide adenine dinucleotide] | – | – | Displacement of NAADP at the maximum concentration tested [1, 4]: failed to displace; Km (human NAD kinase): 800 µM |
| NC(=O)C1=CN([C@@H]2O[C@H](COP(=O)(O)OP(=O)(O)OC[C@H]3O[C@@H](n4cnc5c(N)ncnc54)[C@H](O)[C@@H]3O)[C@@H](O)[C@H]2O)C=CC1 [NADH] | – | – | Displacement of NAADP at the maximum concentration tested [1, 4]: failed to displace |
| NC(=O)C1=CN([C@@H]2O[C@H](COP(=O)(O)OP(=O)(O)OC[C@H]3O[C@@H](n4cnc5c(N)ncnc54)[C@H](OP(=O)(O)O)[C@@H]3O)[C@@H](O)[C@H]2O)C=CC1 [NADPH] | – | 6.3 µM | Stability at pH 7.2 ([2]; 50 mM Hepes (pH 7.2)): remained stable; Stability at pH 0.88 ([2]; 0.75 M HClO4 (pH 0.88)): became unstable; Stability at pH 8.6 ([2]; 0.75 M HClO4/1 M KHCO3 (pH 8.6)): became unstable; Stability at pH 11 ([2]; 1 M K2CO3 (pH 11)): similarly unstable; Stability at pH 9.1 ([2]; 1 M KHCO3 (pH 9.1)): became unstable |
| N=c1c2ncn3c2ncn1[C@@H]1O[C@H](COP(=O)(O)OP(=O)(O)OC[C@H]2O[C@@H]3[C@H](O)[C@@H]2O)[C@@H](O)[C@H]1O [cADPR, cyclic ADP ribose] | – | 2.5 µM | – |
| O=C(O)c1cccnc1 [nicotinic acid] | failed to displace | – | – |
| cholecystokinin [CCK] | – | – | Change in NAADP levels (pancreatic acinar cells; [5]): continuous increase; Duration of increase in NAADP levels (pancreatic acinar cells; [5]): at least 20 min |
| nicotinamide adenine dinucleotide phosphate [NADP] | – | 21 µM | – |
| nicotinic acid adenine dinucleotide phosphate [NAADP] | – | 0.00054 µM | – |
